Paper PMC9226124, “Macrocycle-stabilization of its interaction with 14-3-3 increases plasma membrane localization and activity of CFTR” (Nature Communications, 2022)
“And” between values parts separate entries of the source, which are not always exact repeats. Equal entries are not always repeated.

Legend:
[1] = target: T1, FITC-labeled CFTRpS753pS768 peptide (no 14-3-3) (Homo sapiens, UniProt P13569); assay: Dose-response FP control assay in the absence of 14-3-3; format: binding; conditions: for FP signal: No 14-3-3; for Polarization in the absence of 14-3-3, background subtracted: replicates
T1 construct: made in house; host or cells: synthetic peptide
T1 sequence (P13569 747-774 limits assumed): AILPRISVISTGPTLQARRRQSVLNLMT
How it was run: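 Control run without 14-3-3: FITC-CFTR pS753/pS768 peptide (100 nM or 10 nM) with compound titrated in twofold dilutions in 10 mM HEPES pH 7.4, 150 mM NaCl, 0.1% Tween20, 1 mg/mL BSA. Fluorescence polarization read at ex 485/em 535 nm, background subtracted, n = 3. Curves fitted by four-parameter log(agonist) vs. response.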

[2] = target: T2, 14-3-3β/CFTRpS753pS768 complex (Homo sapiens, UniProt P13569+P31946); assay: FP assay, 14-3-3β titration at constant compound concentration (apparent KD); format: binding; conditions: replicates; for Polarization: FC 100 uM, peptide 100 nM, listed as FC; for FP signal, 14-3-3β titration / FP signal: compound 100 μM
T2 construct: His6 (cleaved yes); made in house; peptide synthetic
T2 sequence (P31946 whole entry): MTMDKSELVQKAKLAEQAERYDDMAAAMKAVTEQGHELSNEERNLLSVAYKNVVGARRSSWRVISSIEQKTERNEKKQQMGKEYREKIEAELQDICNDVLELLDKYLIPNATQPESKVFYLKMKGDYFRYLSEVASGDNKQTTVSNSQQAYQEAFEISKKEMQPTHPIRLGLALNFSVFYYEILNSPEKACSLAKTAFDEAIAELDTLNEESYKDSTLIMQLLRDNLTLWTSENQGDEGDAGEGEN
Experimental: FC-A (100 µM) was added as a positive control and DMSO as the negative control. […] Background polarization was subtracted from all values, n = 3 technical replicates. […] Source data are provided as a Source Data file. […]
The FITC-labeled peptides were dissolved in FP buffer (10 mM HEPES pH 7.4, 150 mM NaCl, 0.1% Tween20, 1 mg/mL BSA) to a final concentration of 100 nM or 10 nM. […] The dilution series were made in 384 Corning Black Round Bottom well plates and their polarization was measured with a Tecan Infinite F500 plate reader (ex. = 485 nm, em. = 535 nm). The method of fitting of the curves was: “log(agonist) vs. response – Variable slope (four parameters)” from GraphPad Prism. The equation is Y = Bottom + (Top-Bottom)/(1 + 10^((LogEC50-X)*HillSlope)).
from the hit validation library.
f the compound, 100 µM FC-A, or both compound and FC-A, 100 µM each. Background polarization was subtracted f
rom all values, n=3 technical replicates.
Source data are provided as a Source Data file.

C=CC(C)(C)OC[C@H]1O[C@H](O[C@@H]2C3=C([C@H](C)COC(C)=O)C[C@H](O)[C@]3(C)/C=C3/[C@@H](COC)CC[C@H]3[C@@H](C)[C@H]2O)[C@H](O)[C@@H](OC(C)=O)[C@@H]1O [FC-A, fusicoccin A, reference compound]
FP signal ([1]; compound 476.8 pM): 1
FP signal ([1]; compound 953.7 pM): 5
FP signal ([1]; compound 1.90735e-9 M): 0
FP signal ([1]; compound 3.8147e-9 M): 3
FP signal ([1]; compound 7.6294e-9 M): 3
FP signal ([1]; compound 1.52588e-8 M): 2
FP signal ([1]; compound 3.05176e-8 M): 2
FP signal ([1]; compound 6.10352e-8 M): 1
FP signal ([1]; compound 1.2207e-7 M): 1
FP signal ([1]; compound 2.44141e-7 M): 2
FP signal ([1]; compound 4.88281e-7 M): 4
FP signal ([1]; compound 9.76563e-7 M): 5
FP signal ([1]; compound 1.95313e-6 M): 6
FP signal ([1]; compound 3.90625e-6 M): 15
FP signal ([1]; compound 7.8125e-6 M): 23
FP signal ([1]; compound 1.5625e-5 M): 37
FP signal ([1]; compound 3.125e-5 M): 53
FP signal ([1]; compound 6.25e-5 M): 70
FP signal ([1]; compound 0.000125 M): 91
FP signal ([1]; compound 0.00025 M): 104
FP signal ([1]; compound 0.0005 M): 116
FP signal ([1]; compound 0.001 M): 133
Polarization in the absence of 14-3-3, background subtracted ([1]; compound 7.8125e-7 M): 1.367 and 0.6667 and -0.1333
Polarization in the absence of 14-3-3, background subtracted ([1]; compound 1.5625e-6 M): 0.1667 and 0.6667 and 0.3667
Polarization in the absence of 14-3-3, background subtracted ([1]; compound 3.125e-6 M): 0.06667 and -0.03333 and 0.6667
Polarization in the absence of 14-3-3, background subtracted ([1]; compound 6.25e-6 M): 0.06667 and -0.2333 and -0.3333
Polarization in the absence of 14-3-3, background subtracted ([1]; compound 1.25e-5 M): 0.5667 and 0.6667 (2×)
Polarization in the absence of 14-3-3, background subtracted ([1]; compound 2.5e-5 M): -0.03333 and 0.6667 and 0.8667
Polarization in the absence of 14-3-3, background subtracted ([1]; compound 5e-5 M): 1.667 and 1.067 and 1.267
Polarization in the absence of 14-3-3, background subtracted ([1]; compound 0.0001 M): 1.667 and 1.167 and 2.267
Polarization ([2]; 14-3-3β 119.2 pM): 20 and 18
FP signal, 14-3-3β titration ([2]; 14-3-3β 119.2 pM): 3.333 and 5.333 (2×)
FP signal ([2]; 14-3-3β 139.2 pM): 5 (2×) and 3
Polarization ([2]; 14-3-3β 238.4 pM): 22 and 21
FP signal, 14-3-3β titration ([2]; 14-3-3β 238.4 pM): 3.333 and 4.333 and 2.333
FP signal ([2]; 14-3-3β 278.5 pM): 6 and 5 and 4
Polarization ([2]; 14-3-3β 476.8 pM): 21 and 19 and 18
FP signal, 14-3-3β titration ([2]; 14-3-3β 476.8 pM): 4.333 (2×) and 2.333
FP signal ([2]; 14-3-3β 556.9 pM): 6 (2×) and 5
Polarization ([2]; 14-3-3β 953.7 pM): 21 and 20 and 18
FP signal, 14-3-3β titration ([2]; 14-3-3β 953.7 pM): 4.333 (2×) and 6.333
FP signal ([2]; 14-3-3β 1.11389e-9 M): 5 and 7 and 8
Polarization ([2]; 14-3-3β 1.90735e-9 M): 18 and 20 and 19
FP signal, 14-3-3β titration ([2]; 14-3-3β 1.90735e-9 M): 0.3333 and 5.333 and 3.333
FP signal ([2]; 14-3-3β 2.22778e-9 M): 6 and 8 and 5
Polarization ([2]; 14-3-3β 3.8147e-9 M): 21 and 19
FP signal, 14-3-3β titration ([2]; 14-3-3β 3.8147e-9 M): 0.3333 and 3.333 and 2.333
FP signal ([2]; 14-3-3β 4.45557e-9 M): 4 and 7 and 9
Polarization ([2]; 14-3-3β 7.62939e-9 M): 20 and 22 and 19
FP signal, 14-3-3β titration ([2]; 14-3-3β 7.62939e-9 M): 6.333 and 3.333 and 1.333
FP signal ([2]; 14-3-3β 8.91113e-9 M): 4 and 8 and 6
Polarization ([2]; 14-3-3β 1.52588e-8 M): 22 and 19
FP signal, 14-3-3β titration ([2]; 14-3-3β 1.52588e-8 M): 1.333 and 7.333 and 4.333
FP signal ([2]; 14-3-3β 1.78223e-8 M): 6 (2×) and 7
Polarization ([2]; 14-3-3β 3.05176e-8 M): 23 and 20 and 22
FP signal, 14-3-3β titration ([2]; 14-3-3β 3.05176e-8 M): 2.333 and 4.333 and 5.333
FP signal ([2]; 14-3-3β 3.56445e-8 M): 9 (2×) and 7
